Reference: publication PMC9853869, “The Myxobacterial Antibiotic Myxovalargin: Biosynthesis, Structural Revision, Total Synthesis, and Molecular Characterization of Ribosomal Inhibition” (Journal of the American Chemical Society, 2023)
≈ marks a conversion by molar mass, not a printed value. Where two headings read alike, the source gives them in different places. *1 amine or outer side, *2 acyl side, *3 side chain or, on linkers, in order; H or OH if unused. Where a SMILES comes first, the peptide text is derived from it. [ ]: non-standard residue; d: D form. The star is where a group is joined. X1 = O=C(C[C@H](N[*:1])c1ccc(O)cc1)[*:2]; dVal(3-OH) = CC(C)(O)[C@@H](N)C(=O)O; X2 = CCC(C)=C(N[*:1])C(=O)[*:2]; ΔIle(E) = CC/C(C)=C(/N)C(=O)O; Isovaleryl = CC(C)CC(=O)*; Agmatine = N=C(N)NCCCCN*; Isobutyryl = CC(C)C(=O)*; NMeA = CN[C@@H](C)C(=O)O; ΔVal = CC(C)=C(N)C(=O)O

Columns and labels:
[1] = test system: Escherichia coli DSM-1116; conditions: DSM-1116, 24 h
[2] = test system: Enterococcus faecium DSM-20477; conditions: DSM-20477, 24 h
[3] = test system: Escherichia coli K12 ΔtolC; conditions: K12, 24 h
[4] = test system: Micrococcus luteus DSM-1790; conditions: DSM-1790, 24 h
[5] = test system: Mycobacterium smegmatis mc2155; conditions: mc2155, 48 h
[6] = test system: Chromobacterium violaceum DSM-30191; conditions: DSM-30191, 24 h
[7] = test system: E. coli ribosomes bearing the A2503G mutation; format: biochemical
[8] = test system: wildtype E. coli ribosomes; format: biochemical; conditions: purified wildtype 70S ribosomes, increasing concentrations
[9] = test system: Staphylococcus aureus DSM-346; conditions: DSM-346, 24 h
ribosome = test: Toeprinting assay on ErmBL mRNA; format: biochemical, E. coli; conditions: 10–100 μM, absence of isoleucine
Description: To address the mechanism of action of myxovalargins, we employed the toeprinting assay, which uses reverse transcription to monitor the position of ribosomes on a mRNA (Figure 6a).[24] The assay was performed in the absence of isoleucine (Ile) such that in the absence of antibiotics, ribosomes can initiate at the AUG start codon but become stuck after translating 15 amino acids when the Ile “catch-codon” enters the A-site (Figure 6a,b). […] We also performed toeprinting reactions in the presence of 5 μM erythromycin (Ery), which allows ribosomes to translate the first 10 amino acids of the ErmBL mRNA but then stalls them with GAU (Asp) codon in the P-site (Figure 6a,b), as reported previously.[25]−[27] After pre-incubation with Ery, we titrated reactions with increasing MyxB, which also led to a loss of the Ery-dependent ErmBL stalling band and appearance of ribosomes positioned on the start codon (Figure 6b), consistent with the overlap in ribosomal binding sites of MyxB and Ery (Figure 6c,d). […] Indeed, in the MyxB-SRC, we observed the simultaneous presence of P-site tRNA and MyxB (Figure 5d) but no ribosomes with additional presence of A-site tRNA (Figure S7-5). […]

[10] = test system: Pseudomonas aeruginosa PAO1; conditions: PAO1, 24 h
[11] = test system: Pseudomonas aeruginosa PA14; conditions: PA14, 24 h
[12] = test system: 23S rRNA of the large ribosomal subunit; format: binding, E. coli; conditions: 10 μM or 100 μM
eukaryotic translation = conditions: cited from earlier work
Source text: Microorganisms continue to be a major source for innovative antibiotics. Ubiquitously found but understudied soil-dwelling predatory myxobacteria have proven to be a rich source of bioactive compounds.[3]−[5] […] The myxovalargin structure was described in 1987 as comprising some congeners with Myxovalargin A (MyxA) ...

M. tuberculosis = conditions: for toxicity in infected mice: mouse, in vivo
M. tuberculosis H37Rv [13] = test system: M. tuberculosis H37Rv
Staphylococcus aureus = conditions: 4 h
in vivo = conditions: BALB/c, mouse
Pasteurella multocida [14] = test system: Pasteurella multocida
HepG2 cells = conditions: HepG2, 24 h, alamarBlue, 0.005 - 99.0 μM, mean of 4 replicates
M. tuberculosis H37Rv [15] = test: Time-kill kinetics in vitro; format: cell-based, Mycobacterium tuberculosis; conditions: independent triplicates
[16] = test system: intracellular M. tuberculosis H37Rv; test: Intracellular activity ex vivo in THP-1-derived macrophages; format: cell-based, Mycobacterium tuberculosis
Pasteurella multocida [17] = test system: Pasteurella multocida; remark: listed apart in the source
Streptococcus uberis = conditions: 4 h

## CCC(C)=C(NC(=O)[C@H](NC(=O)[C@@H](NC(=O)[C@@H](CCCNC(=N)N)NC(=O)C(NC(=O)[C@H](NC(=O)C[C@H](NC(=O)[C@H](NC(=O)[C@H](NC(=O)[C@H](C)N(C)C(=O)[C@H](C)NC(=O)C(NC(=O)C(C)C)=C(C)C)C(C)C)C(C)C)c1ccc(O)cc1)C(C)C)=C(C)C)C(C)C)C(C)C)C(=O)N[C@H](C)C(=O)N[C@@H](C(=O)NCCCCNC(=N)N)C(C)(C)O [MyxB] (Isobutyryl-[ΔVal]A[NMeA][dV][dV][X1][dV][ΔVal][dR]V[dV][X2][dA][dVal(3-OH)]-Agmatine)
[1]
  MIC: 64 mg/L (≈ 38.5 µM)
[2]
  MIC: 1 mg/L (≈ 0.601 µM)
[3]
  MIC: 32 mg/L (≈ 19.2 µM)
[4]
  MIC: 2 mg/L (≈ 1.2 µM)
[5]
  MIC: 8 mg/L (≈ 4.81 µM)
[6]
  MIC: 32 mg/L (≈ 19.2 µM)
[7]
  in vitro translation of firefly luciferase reporter: completely resistant
[8]
  in vitro translation of firefly luciferase reporter: inhibited by MyxB in a dose-dependent fashion
[9]
  MIC: 8 mg/L (≈ 4.81 µM)
ribosome
  position of arrested ribosomes (toeprint): ribosomes positioned with the AUG start codon in the P-site
[10]
  MIC: 64 mg/L (≈ 38.5 µM)
[11]
  MIC: 32 mg/L (≈ 19.2 µM)
[12]
  protection from dimethyl sulfate modification: protects multiple 23S rRNA nucleotides

## CC(C)=C(NC(=O)C(C)C)C(=O)N[C@@H](C)C(=O)N(C)[C@@H](C)C(=O)N[C@@H](C(=O)N[C@@H](C(=O)N[C@@H](CC(=O)N[C@@H](C(=O)NC(C(=O)N[C@H](CCCNC(=N)N)C(=O)N[C@H](C(=O)N[C@@H](C(=O)NC(C(=O)N[C@H](C)C(=O)N[C@@H](C(=O)NCCCCNC(=N)N)C(C)(C)O)=C(C)C)C(C)C)C(C)C)=C(C)C)C(C)C)c1ccc(O)cc1)C(C)C)C(C)C [Myx C] (Isobutyryl-[ΔVal]A[NMeA][dV][dV][X1][dV][ΔVal][dR]V[dV][ΔVal][dA][dVal(3-OH)]-Agmatine)
[1]
  MIC: 64 mg/L (≈ 38.8 µM)
[2]
  MIC: 1 mg/L (≈ 0.606 µM)
[3]
  MIC: 32 mg/L (≈ 19.4 µM)
[4]
  MIC: 2 mg/L (≈ 1.21 µM)
[5]
  MIC: 4 mg/L (≈ 2.43 µM)
[6]
  MIC: 8 mg/L (≈ 4.85 µM)
[9]
  MIC: 2 mg/L (≈ 1.21 µM)
[10]
  MIC: 64 mg/L (≈ 38.8 µM)
[11]
  MIC: 32 mg/L (≈ 19.4 µM)

## CCC(C)=C(NC(=O)[C@H](NC(=O)[C@@H](NC(=O)[C@@H](CCCNC(=N)N)NC(=O)C(NC(=O)[C@H](NC(=O)C[C@H](NC(=O)[C@H](NC(=O)[C@H](NC(=O)[C@H](C)N(C)C(=O)[C@H](C)NC(=O)C(NC(=O)CC(C)C)=C(C)C)C(C)C)C(C)C)c1ccc(O)cc1)C(C)C)=C(C)C)C(C)C)C(C)C)C(=O)N[C@H](C)C(=O)N[C@@H](C(=O)NCCCCNC(=N)N)C(C)(C)O [Myxovalargin] (Isovaleryl-[ΔVal]A[NMeA][dV][dV][X1][dV][ΔVal][dR]V[dV][X2][dA][dVal(3-OH)]-Agmatine)
Eukaryotic translation
  inhibition of eukaryotic translation: did not inhibit eukaryotic translation
M. tuberculosis
  toxicity in infected mice: moribund within 1 week
M. tuberculosis H37Rv [13]
  MIC (antitubercular activity): 0.2 mg/L (≈ 0.119 µM)

## CC/C(C)=C(/NC(=O)[C@H](NC(=O)[C@@H](NC(=O)[C@@H](CCCNC(=N)N)NC(=O)C(NC(=O)[C@H](NC(=O)C[C@H](NC(=O)[C@H](NC(=O)[C@H](NC(=O)[C@H](C)N(C)C(=O)[C@H](C)NC(=O)C(NC(=O)CC(C)C)=C(C)C)C(C)C)C(C)C)c1ccc(O)cc1)C(C)C)=C(C)C)C(C)C)C(C)C)C(=O)N[C@H](C)C(=O)N[C@@H](C(=O)NCCCCNC(=N)N)C(C)(C)O [MyxA, Myxovalargin A] (Isovaleryl-[ΔVal]A[NMeA][dV][dV][X1][dV][ΔVal][dR]V[dV][ΔIle(E)][dA][dVal(3-OH)]-Agmatine)
[1]
  MIC: 32 mg/L (≈ 19.1 µM)
Histophilus somni; 4 h
  MIC50: 4 mg/L (≈ 2.39 µM)
  MIC range: 2 to 8 mg/L
Histophilus somni; bovine isolates, n = 20
  MIC90: 8 mg/L (≈ 4.77 µM)
Staphylococcus aureus
  MIC: 1 to 2 mg/L
  MIC + milk: > 64 mg/L
[2]
  MIC: 0.5 mg/L (≈ 0.298 µM)
In vivo; ip, 10 mg/kg
  level at 0.5 h: 1.83 µg/mL
  level at 2 h: 1.55 µg/mL
In vivo; sc, 50 mg/kg
  level at 0.5 h: 5.26 µg/mL
  level at 2 h: 2.28 µg/mL
Pasteurella multocida [14]; 4 h
  MIC50: 16 mg/L (≈ 9.54 µM)
  MIC + serum: 10 mg/L
Pasteurella multocida [14]; bovine isolates, n = 25
  MIC90: 16 mg/L (≈ 9.54 µM)
HepG2 cells
  median cytotoxic dose CTD50: > 99 µM
[3]
  MIC: 16 mg/L (≈ 9.54 µM)
0.5 mg/kg/day i.p., seven consecutive doses
  tolerability: well tolerated
5 mg/kg/day i.p., on day 2
  tolerability: severe adverse effects
mice, i.p. 0.5, 2 and 5 mg/kg, blood, LC-MS
  half-life (in words): long half-life
[4]
  MIC: 1 mg/L (≈ 0.596 µM)
M. tuberculosis H37Rv [15]
  mode of killing in vitro: dose-dependent bactericidal activity
[5]
  MIC: 4 mg/L (≈ 2.39 µM)
[16]
  mode of action ex vivo (intracellular): bacteriostatic activity
[6]
  MIC: 8 mg/L (≈ 4.77 µM)
M. tuberculosis; 2 mg/kg i.p. daily, study terminated after 1 week
  effect on bacterial burden in lung and spleen: no significant effect on bacterial burden
M. tuberculosis
  toxicity in infected mice: moribund after 1 week
Mannheimia haemolytica; 4 h
  MIC50: 16 mg/L (≈ 9.54 µM)
  MIC + serum: 20 mg/L
Mannheimia haemolytica; bovine isolates, n = 55
  MIC90: 16 mg/L (≈ 9.54 µM)
M. tuberculosis H37Rv [13]
  MIC: 0.2 mg/L (≈ 0.119 µM)
Pasteurella multocida [17]; 10 mg/kg MyxA, i.p., single dose 1 h post-infection, groups of 6
  Survival rate 48 hpi: 83%
Pasteurella multocida [17]; 10 mg/kg MyxA, i.p., n=1
  Mean bacteria in liver: 8.5 x 10^7 CFU/g
Pasteurella multocida [17]; 10 mg/kg MyxA, i.p., n=5
  Mean bacteria in liver: 0 CFU/g
Pasteurella multocida [17]; 10 mg/kg i.p.
  bacteriological cure (animals): five out of six
Pasteurella multocida [17]; 50 mg/kg MyxA, s.c.
  Mean bacteria in liver: 1.8 x 10^6 CFU/g
Pasteurella multocida [17]; 50 mg/kg MyxA, s.c., single dose 1 h post-infection
  Survival rate 48 hpi: 0%
Pasteurella multocida [17]; single 10 mg/kg i.p. dose, P. multocida sepsis model
  tolerability (clinical scoring): well tolerated
[9]
  MIC: 2 mg/L (≈ 1.19 µM)
Streptococcus uberis
  MIC: 0.25 to 2 mg/L
  MIC + milk: > 64 mg/L
[10]
  MIC: 32 mg/L (≈ 19.1 µM)
[11]
  MIC: 16 mg/L (≈ 9.54 µM)

## CCN1CCN(c2cc3c(cc2F)c(=O)c(C(=O)O)cn3C2CC2)CC1 [enrofloxacin, reference compound]
Pasteurella multocida [17]; 10 mg/kg enrofloxacin, s.c.
  Mean bacteria in liver: 0 CFU/g
  Survival rate 48 hpi: 100%
